According to paper PMC10924921, “Mi-2β promotes immune evasion in melanoma by activating EZH2 methylation” (Nature Communications, 2024):
“Also recorded” adds a separate entry of the source.

Key:
[1] = tested on: tumor-infiltrating lymphocytes in B16F10 graft; experiment: Flow cytometry of tumor-infiltrating lymphocytes, B16F10 graft; type: in vivo, C57BL/6 mice
Procedure: Tumors were minced with scissors, and then digested with the digestion buffer (RPMI 1640 medium, 5% FBS, 1% penicillin-streptomycin, 25 mM HEPES, and 300 U collagenase (Sigma C0130)) on a shaker at 37 °C for 2 hours. Single cells were prepared through a 70 μm cell strainer. Erythrocytes were removed by incubation in red blood cell lysis buffer (R7757, Sigma) at room temperature for 5 min. The cells were prepared in PBS (with concentration of ~2 × 10^7) for studies.
The single-cell suspension were fixed with 2% paraformaldehyde solution (J19943K2, Thermo Scientific). CD45 + T cells were selected from single-cell suspension (about 2 × 10^7 cells digest from […] tumor tissue) by flow cytometry with the follow antibodies (anti-mouse CD45; BD pharmingen, 561875). And then the cells were stained anti-mouse CD3e PE (145-2C11, BD pharmingen, 553063), anti-mouse CD4 FITC (RM4-5, BD pharmingen, 553046), anti-mouse CD4 PE/Cy7 (GK1.5, BioLegend, 100421), anti-mouse CD8 FITC (53-6.7, BD pharmingen, 553031), anti-mouse CD8a APC/Cy7 (53-6.7, BioLegend 100713), anti-mouse IFN-γ PE (XMG1.2, eBioscience, 12731181), anti-mouse CD69 PE (H1.2F3, Biolegend, 104508), anti-mouse CD25 Alexa Fluor 488 (PC61.5, eBioscience, 53025182), anti-mouse CD107a-V450 (1D4B, BD, 560648), anti-human/mouse granzyme B FITC (GB11, BioLegend, 515403). […]

NEK6 = NEK6 (Homo sapiens, UniProt Q9HC98); experiment: biochemical; set-up: KINOMEscan active-site competition binding panel (468 kinase assays), per cent of control at 1000 nM; conditions: KINOMEscan per cent of control (binding competition); read-out: Percent Control
Source text: (§1) Figure S7 / Percent Control

PIK3CA(E545K) = PIK3CA(E545K) (Homo sapiens, UniProt P42336, E545K); experiment: biochemical; set-up: KINOMEscan active-site competition binding panel (468 kinase assays), per cent of control at 1000 nM; conditions: KINOMEscan per cent of control (binding competition); read-out: Percent Control
Source text: as §1

MKNK1 = MKNK1 (Homo sapiens, UniProt Q9BUB5); experiment: biochemical; set-up: KINOMEscan active-site competition binding panel (468 kinase assays), per cent of control at 1000 nM; conditions: KINOMEscan per cent of control (binding competition); read-out: Percent Control
Source text: as §1

[2] = target: T1, ABL1(M351T)-phosphorylated (Homo sapiens, UniProt P00519, M351T); experiment: biochemical; set-up: KINOMEscan active-site competition binding panel (468 kinase assays), per cent of control at 1000 nM; conditions: KINOMEscan per cent of control (binding competition); read-out: Percent Control
T1 construct: phosphorylated
Source text: as §1

CDKL3 = CDKL3 (Homo sapiens, UniProt Q8IVW4); experiment: biochemical; set-up: KINOMEscan active-site competition binding panel (468 kinase assays), per cent of control at 1000 nM; conditions: KINOMEscan per cent of control (binding competition); read-out: Percent Control
Source text: as §1

TESK1 = TESK1 (Homo sapiens, UniProt Q15569); experiment: biochemical; set-up: KINOMEscan active-site competition binding panel (468 kinase assays), per cent of control at 1000 nM; conditions: KINOMEscan per cent of control (binding competition); read-out: Percent Control
Source text: as §1

CDK3 = CDK3 (Homo sapiens, UniProt Q00526); experiment: biochemical; set-up: KINOMEscan active-site competition binding panel (468 kinase assays), per cent of control at 1000 nM; conditions: KINOMEscan per cent of control (binding competition); read-out: Percent Control
Source text: as §1

B16F10 cell graft [3] = experiment: Syngeneic melanoma graft mouse model, tumor growth and survival
Procedure: Mi-2β knockdown or Scramble B16F10 cells (1.5 × 10^5) were mixed with BD matrigel (Matrix Growth Factor Reduced) (BD, 354230) in 100 μl PBS, and then subcutaneously injected into the right flanks of C57BL/6 mice of 8–10 week old (from the Jackson Laboratory, 000664). Tumor growth was measured with calipers, and size was expressed in cubic centimeters every 3 days. For antibody treatment, control IgG (10 mg/kg) or anti-PD-1 (RMP1-14, BioXCell, 10 mg/kg) was injected intraperitoneally (i.p.) on day 6, 9, 12, 15 and 18 after tumor cell inoculation. For tumor growth curve, grafts were measured with calipers and established (0.5*length × width^2) every three days. For survival tests, mice were euthanized when the tumor size exceeded 1 cm^3. […] The mice were euthanized after indicated days or when the allowable endpoint size (1 cm^3) was reached.

B16F10 cell graft [4] = experiment: Antibody-mediated CD8 T-cell depletion and Z36-MP5 treatment; type: in vivo, mouse; conditions: Z36-MP5 30 mg/kg, 200 µg anti-CD8
468 kinases = experiment: KINOMEscan screening (DiscoveRx); type: binding; conditions: 1000 nM
[5] = target: recombinant purified human Mi-2β protein (Homo sapiens, UniProt Q14839); experiment: FRET-based nucleosome repositioning assay (EpiDyne-FRET); conditions: for IC50: IC50 against Mi-2β
Pharmacokinetics in rats = type: in vivo; conditions: Sprague-Dawley, rat, serum, ip, intraperitoneal 1.0 mg/kg, male SD rats
Procedure: Compound Z36-MP5 was evaluated in a pharmacokinetic study in male Sprague-Dawley (SD) rats following intraperitoneal injection of Z36-MP5 at 1.0 mg/kg as a solution in 5% DMSO, 30% PEG400, and 65% corn oil. Blood was collected at 0.25, 0.5, 1, 2, 4, 8, and 24 h following intraperitoneal injection. The blood samples were placed in wet ice, and serum was collected after centrifugation. Serum samples were frozen and stored at −80 °C. The serum samples were analyzed utilizing HPLC-coupled tandem mass spectrometry. Values are calculated from arithmetic mean plasma concentrations (n = 3 rats per condition). Rats experiments were done according to protocols approved by the ethics committee review board of University of Arkansas for Medical Science and in accordance with the guidelines set forth by the US National Institutes of Health.

recombinant purified human Mi-2β protein, sequence (Q14839 whole entry): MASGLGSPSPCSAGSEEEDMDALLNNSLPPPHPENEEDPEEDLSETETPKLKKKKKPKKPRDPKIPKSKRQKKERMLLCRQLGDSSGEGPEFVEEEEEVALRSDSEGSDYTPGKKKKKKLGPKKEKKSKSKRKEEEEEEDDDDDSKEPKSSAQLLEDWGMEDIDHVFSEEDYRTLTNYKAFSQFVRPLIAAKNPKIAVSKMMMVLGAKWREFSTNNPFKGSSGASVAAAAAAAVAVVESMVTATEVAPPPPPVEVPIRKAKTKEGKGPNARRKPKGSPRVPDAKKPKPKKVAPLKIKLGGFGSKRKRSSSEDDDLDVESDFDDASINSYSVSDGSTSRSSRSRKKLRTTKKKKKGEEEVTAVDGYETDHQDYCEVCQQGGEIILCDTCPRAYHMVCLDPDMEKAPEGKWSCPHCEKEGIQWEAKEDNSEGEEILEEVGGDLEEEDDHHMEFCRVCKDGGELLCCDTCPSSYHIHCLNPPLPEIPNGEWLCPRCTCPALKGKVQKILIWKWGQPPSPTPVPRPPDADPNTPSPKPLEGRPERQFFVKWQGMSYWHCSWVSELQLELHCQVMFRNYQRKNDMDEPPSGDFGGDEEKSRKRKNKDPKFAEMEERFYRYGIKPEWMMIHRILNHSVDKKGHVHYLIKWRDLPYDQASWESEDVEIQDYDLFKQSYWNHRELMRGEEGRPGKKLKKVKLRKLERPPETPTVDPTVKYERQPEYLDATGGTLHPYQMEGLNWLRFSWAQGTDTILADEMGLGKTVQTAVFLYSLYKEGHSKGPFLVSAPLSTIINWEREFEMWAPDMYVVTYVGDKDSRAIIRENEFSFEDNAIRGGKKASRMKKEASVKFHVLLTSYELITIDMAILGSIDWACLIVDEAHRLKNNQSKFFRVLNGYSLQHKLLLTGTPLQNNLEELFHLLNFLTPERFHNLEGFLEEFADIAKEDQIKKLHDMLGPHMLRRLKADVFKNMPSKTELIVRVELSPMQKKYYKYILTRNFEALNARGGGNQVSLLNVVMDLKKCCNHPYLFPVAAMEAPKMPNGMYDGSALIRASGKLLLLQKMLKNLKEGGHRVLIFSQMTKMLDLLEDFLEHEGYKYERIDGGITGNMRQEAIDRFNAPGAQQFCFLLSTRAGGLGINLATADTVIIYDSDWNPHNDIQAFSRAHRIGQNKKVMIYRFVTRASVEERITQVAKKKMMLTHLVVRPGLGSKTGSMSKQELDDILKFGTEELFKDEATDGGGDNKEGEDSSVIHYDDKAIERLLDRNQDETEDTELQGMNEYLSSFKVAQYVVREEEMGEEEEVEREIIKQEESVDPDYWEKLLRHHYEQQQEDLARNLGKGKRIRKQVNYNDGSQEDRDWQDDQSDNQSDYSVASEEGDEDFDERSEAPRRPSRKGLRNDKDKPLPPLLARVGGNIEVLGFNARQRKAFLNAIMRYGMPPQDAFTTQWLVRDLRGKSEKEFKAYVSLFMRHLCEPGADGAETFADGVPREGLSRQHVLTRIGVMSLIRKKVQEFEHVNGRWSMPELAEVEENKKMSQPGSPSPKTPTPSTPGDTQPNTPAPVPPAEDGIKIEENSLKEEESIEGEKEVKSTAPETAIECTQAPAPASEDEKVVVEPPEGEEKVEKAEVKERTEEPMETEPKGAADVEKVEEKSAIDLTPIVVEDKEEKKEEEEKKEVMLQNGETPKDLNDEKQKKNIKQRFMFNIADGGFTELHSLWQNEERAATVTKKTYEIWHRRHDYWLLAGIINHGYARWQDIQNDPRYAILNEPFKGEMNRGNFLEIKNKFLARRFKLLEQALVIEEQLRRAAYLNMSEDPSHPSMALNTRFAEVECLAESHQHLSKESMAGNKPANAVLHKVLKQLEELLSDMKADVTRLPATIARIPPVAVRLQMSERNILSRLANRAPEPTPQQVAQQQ
CDKL3, sequence (Q8IVW4 whole entry): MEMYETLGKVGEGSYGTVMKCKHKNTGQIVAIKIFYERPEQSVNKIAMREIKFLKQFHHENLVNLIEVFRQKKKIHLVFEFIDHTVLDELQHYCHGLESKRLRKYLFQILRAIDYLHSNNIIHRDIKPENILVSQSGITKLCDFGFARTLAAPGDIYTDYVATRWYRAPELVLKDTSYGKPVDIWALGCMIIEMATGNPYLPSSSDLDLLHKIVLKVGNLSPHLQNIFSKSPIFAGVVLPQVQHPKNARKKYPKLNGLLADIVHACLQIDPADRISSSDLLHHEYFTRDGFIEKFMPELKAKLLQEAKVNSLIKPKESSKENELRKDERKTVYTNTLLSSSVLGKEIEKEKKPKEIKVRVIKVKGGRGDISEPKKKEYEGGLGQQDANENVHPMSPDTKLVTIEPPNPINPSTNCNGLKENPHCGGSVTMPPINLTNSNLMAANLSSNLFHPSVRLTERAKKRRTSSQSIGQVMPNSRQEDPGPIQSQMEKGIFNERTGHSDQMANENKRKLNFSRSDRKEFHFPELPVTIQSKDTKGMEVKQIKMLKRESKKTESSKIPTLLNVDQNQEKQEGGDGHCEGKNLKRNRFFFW
CDK3, sequence (Q00526 whole entry): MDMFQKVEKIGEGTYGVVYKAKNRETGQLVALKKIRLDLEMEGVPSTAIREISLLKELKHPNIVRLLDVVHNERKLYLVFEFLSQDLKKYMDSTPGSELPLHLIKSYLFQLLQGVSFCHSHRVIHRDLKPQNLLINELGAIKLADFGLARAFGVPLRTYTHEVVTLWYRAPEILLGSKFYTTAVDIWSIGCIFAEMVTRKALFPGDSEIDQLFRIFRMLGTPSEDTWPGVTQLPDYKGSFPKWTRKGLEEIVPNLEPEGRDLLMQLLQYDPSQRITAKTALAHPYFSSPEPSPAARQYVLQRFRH
TESK1, sequence (Q15569 whole entry): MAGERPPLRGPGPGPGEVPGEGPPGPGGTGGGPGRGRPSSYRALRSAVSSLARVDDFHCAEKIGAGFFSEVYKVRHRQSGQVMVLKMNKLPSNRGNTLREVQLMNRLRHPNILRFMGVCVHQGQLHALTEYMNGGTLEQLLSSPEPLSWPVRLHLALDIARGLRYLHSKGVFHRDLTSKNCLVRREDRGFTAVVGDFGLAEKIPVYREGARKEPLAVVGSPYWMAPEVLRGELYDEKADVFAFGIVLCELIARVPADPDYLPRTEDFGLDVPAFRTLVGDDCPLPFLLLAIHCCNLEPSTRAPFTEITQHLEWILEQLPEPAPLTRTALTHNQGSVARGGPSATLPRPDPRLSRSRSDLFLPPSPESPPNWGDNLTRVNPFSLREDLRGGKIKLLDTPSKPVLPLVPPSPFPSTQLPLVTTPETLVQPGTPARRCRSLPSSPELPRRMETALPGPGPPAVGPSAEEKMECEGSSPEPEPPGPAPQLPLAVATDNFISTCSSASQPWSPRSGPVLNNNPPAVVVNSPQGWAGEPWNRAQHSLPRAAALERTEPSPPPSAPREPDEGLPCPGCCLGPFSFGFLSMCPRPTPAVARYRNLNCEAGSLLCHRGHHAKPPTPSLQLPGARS
NEK6, sequence (Q9HC98 whole entry): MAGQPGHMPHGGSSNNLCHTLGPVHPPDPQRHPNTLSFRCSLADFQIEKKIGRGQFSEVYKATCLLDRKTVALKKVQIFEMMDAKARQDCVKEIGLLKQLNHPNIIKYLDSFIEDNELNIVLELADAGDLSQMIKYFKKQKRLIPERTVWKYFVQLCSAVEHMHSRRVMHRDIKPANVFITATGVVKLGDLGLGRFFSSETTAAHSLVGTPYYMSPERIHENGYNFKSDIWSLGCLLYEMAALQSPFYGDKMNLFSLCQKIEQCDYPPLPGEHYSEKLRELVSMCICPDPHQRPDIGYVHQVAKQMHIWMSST
MKNK1, sequence (Q9BUB5 whole entry): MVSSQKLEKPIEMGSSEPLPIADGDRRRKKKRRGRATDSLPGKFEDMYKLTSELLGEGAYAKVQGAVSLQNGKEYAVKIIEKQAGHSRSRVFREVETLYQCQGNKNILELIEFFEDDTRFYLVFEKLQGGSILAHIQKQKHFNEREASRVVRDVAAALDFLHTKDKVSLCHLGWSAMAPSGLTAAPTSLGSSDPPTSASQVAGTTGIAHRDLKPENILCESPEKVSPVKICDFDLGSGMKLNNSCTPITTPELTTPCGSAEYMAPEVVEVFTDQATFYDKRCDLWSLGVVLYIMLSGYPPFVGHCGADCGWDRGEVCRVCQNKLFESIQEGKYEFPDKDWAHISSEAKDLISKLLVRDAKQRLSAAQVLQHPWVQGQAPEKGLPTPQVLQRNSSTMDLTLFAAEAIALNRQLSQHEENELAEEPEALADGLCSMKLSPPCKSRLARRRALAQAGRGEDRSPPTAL

## Cn1c(=O)[nH]c2ccc(-c3cccc(C(=O)NC4CCn5ccnc5C4)c3)cc21 (centres unmarked) [Z36-MP5]
[1]
  CD8+ T-cell TILs in graft melanomas: moderate increase
  GZMB expression and activation markers CD69, IFN-γ, CD25, CD107 in tumor-infiltrating CD8+ T cells: upregulation
NEK6
  remaining binding at 1 µM: 83%
PIK3CA(E545K)
  remaining binding at 1 µM: 48%
MKNK1
  remaining binding at 1 µM: 100%
[2]
  remaining binding at 1 µM: 59%
CDKL3
  remaining binding at 1 µM: 59%
TESK1
  remaining binding at 1 µM: 100%
CDK3
  remaining binding at 1 µM: 43%
B16F10 cell graft [3]; B16F10 graft, MS177 100 mg/kg 5 days, then anti-PD-1 with Z36-MP5 or vehicle
  treatment effect in mice treated with MS177 to inhibit EZH2: No treatment effects were detected
B16F10 cell graft [3]; Z36-MP5 30 mg/kg/day accompanied by anti-PD-1
  effect on tumors generated from Mi-2β-null cells: No detectable inhibitory effect
B16F10 cell graft [4]
  effectiveness after neutralization of CD8 T cells: completely abolished the effectiveness
468 kinases
  activity against 468 kinases: extremely high kinase selectivity; also recorded: not significantly active on any targets tested
[5]; 1 µM
  inhibition of Mi-2β ATPase: completely inhibits
[5]; ATP 10 μM
  IC50: 79 ± 13 nM
[5]; ATP 30 μM
  IC50: 198 ± 33 nM
[5]; ATP 100 μM
  IC50: 576 ± 86 nM
[5]; ATP 300 μM
  IC50: 1660 ± 358 nM
[5]; Mi-2β chromatin modulatory activity, n = 3
  IC50: 82 ± 13 nM
[5]; IC50 increased with ATP 10–300 µM
  mode of inhibition: ATP-competitive inhibitor
[5]; ratio of IC50 values
  potency relative to the original compound Z36: ~ 85 fold
Pharmacokinetics in rats
  Cmax: 3960 ng/mL
Pharmacokinetics in rats; read-out: half-life T1/2 (converted)
  half-life: 27 min
